# Results as given in patent US20240059703A1 (AMGEN INC., priority 2021, published 2024).
# What was measured:
# [1] = test system: A549 (human lung carcinoma) cells; test: Cell Viability Assay (CellTiter-Glo), A549; format: cell-based; conditions: Homo sapiens, A549, 72 h
# Procedure, shortened: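 After a 72 h exposure to serial compound dilutions at 37° C, luminescent ATP content was measured with CellTiter-Glo. The cells were A549 or MIA PaCa-2, seeded at 1.67E+04 cells/mL in RPMI 1640 with 10% serum. Signals were normalized to DMSO controls and IC50 fitted with a 4-parameter logistic model.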
# KRAS G12C = KRAS G12C (Homo sapiens (Human), UniProt P01116, C118A/G12C); test: 2 h coupled exchange assay; format: biochemical; conditions: Avg 2 h Coupled exchange IC50, 2 h compound pre-incubation
# Sequence of KRAS G12C (P01116 other isoform, or with tags, fused parts or gaps G12C/C118A): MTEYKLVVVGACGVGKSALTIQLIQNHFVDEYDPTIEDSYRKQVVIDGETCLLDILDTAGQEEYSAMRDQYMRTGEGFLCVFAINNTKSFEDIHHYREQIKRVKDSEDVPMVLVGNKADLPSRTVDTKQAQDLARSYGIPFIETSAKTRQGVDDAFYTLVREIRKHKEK
# Method: The term “2 h coupled exchange assay” or “20 h coupled exchange assay” as used herein refers to the assay described in the Section entitled “BIOLOGICAL EVALUATION.”
# [2] = test system: MIA PaCa-2 (human pancreatic carcinoma) cells; test: Cell Viability Assay (CellTiter-Glo), MIA PaCa-2; format: cell-based
# Method: Serially-diluted compound or DMSO was added to the cells, and plates were incubated at 37° C., 5% CO2 for 72 h. Cell viability was measured using a CellTiter-Glo® Luminescent Cell Viability Assay kit (Promega) according to the manufacturer's protocol. The luminescence signal of treated samples was normalized to DMSO control, and data were analyzed using a 4-parameter logistic model to calculate IC50 values.
# [3] = SOS-mediated nucleotide exchange
Compound,IC50 [1],IC50 (KRAS G12C; [3]),"IC50 ([2]; Homo sapiens, MIA PaCa-2, 72 h)",IC50 (KRAS G12C),IC50 ([2]; 72 h)
"C=CC(=O)N1CC2(CCN(c3nc4c(c(-c5cc(O)cc(F)c5Cl)c3C#N)C[C@H]3C[C@@H]4C3(C)C)C2)C1 [Example 12-34, (1R,9R)-6-(2-chloro-3-fluoro-5-hydroxyphenyl)-10,10-dimethyl-4-(2-(2-propenoyl)-2,6-diazaspiro[3.4]octan-6-yl)-3-azatricyclo[7.1.1.0^2,7] undeca-2,4,6-triene-5-carbonitrile]",> 5 µM,0.02 µM,0.092 µM,–,–
"C=CC(=O)N1CC2(CCN(c3nc4c(c(-c5c(C)ccc6[nH]ncc56)c3C#N)[C@H](C)O[C@H](C)C4)C2)C1 (racemic) [Example 13-13, (5R,7S)-5,7-dimethyl-4-(5-methyl-1H-indazol-4-yl)-2-(2-(2-propenoyl)-2,6-diazaspiro[3.4]octan-6-yl)-7,8-dihydro-5H-pyrano[4,3-b]pyridine-3-carbonitrile|(5S,7R)-5,7-dimethyl-4-(5-methyl-1H-indazol-4-yl)-2-(2-(2-propenoyl)-2,6-diazaspiro[3.4]octan-6-yl)-7,8-dihydro-5H-pyrano[4,3-b]pyridine-3-carbonitrile]",> 5 µM,0.093 µM,0.462 µM,–,–
"C=CC(=O)N1CC2(CCN(c3nc4c(c(-c5ccccc5Cl)c3C#N)CC[C@@H](c3ccnn3C)C4)C2)C1 [Example 13-20, (7R)-4-(2-chlorophenyl)-7-(1-methyl-1H-pyrazol-5-yl)-2-(2-(2-propenoyl)-2,6-diazaspiro[3.4]octan-6-yl)-5,6,7,8-tetrahydro-3-quinolinecarbonitrile]",3 µM,0.012 µM,0.224 µM,–,–
"C=CC(=O)N1CC2(CCN(c3nc4cc(F)ccc4c(-c4c(C)ccc5[nH]ncc45)c3C)[C@H]2C)C1 (single isomer, unassigned) [Example 2-58]",> 5 µM,0.282 µM,2.08 µM,–,–
"C=CC(=O)N1CC2(CCN(c3nc4c(c(-c5cccc6cccc(C)c56)n3)CCC(C)(C)C4)C2)C1 [Example 1-30, 1-(6-(7,7-dimethyl-4-(8-methyl-1-naphthalenyl)-5,6,7,8-tetrahydro-2-quinazolinyl)-2,6-diazaspiro[3.4]octan-2-yl)-2-propen-1-one]",10.3 µM,3.46 µM,> 5 µM,–,–
"C=CC(=O)N1CC2(CCN(c3nc4cc(-c5scnc5C)ccc4c(-c4c(C)ccc5[nH]ncc45)c3C)C2)C1 [Example 15-3, 1-(6-(3-methyl-4-(5-methyl-1H-indazol-4-yl)-7-(4-methyl-1,3-thiazol-5-yl)-2-quinolinyl)-2,6-diazaspiro[3.4]octan-2-yl)-2-propen-1-one]",> 5 µM,–,1.12 µM,0.062 µM,–
"C=CC(=O)N1CC2(CCN(c3nc(-c4ccccc4F)c4c(n3)N(C)CCC4)C2)C1 [Example 1-33, 1-(6-(4-(2-fluorophenyl)-8-methyl-5,6,7,8-tetrahydropyrido[2,3-d]pyrimidin-2-yl)-2,6-diazaspiro[3,4]octan-2-yl)-2-propen-1-one]",13.5 µM,174 µM,13.4 µM,–,–
"C=CC(=O)N1CC2(CCN(c3nc4c(c(-c5c(N)c(Cl)cc(Cl)c5F)c3C#N)COC(C)(C)C4)C2)C1 (single isomer, unassigned) [Example 13-155, 4-(2-amino-3,5-dichloro-6-fluorophenyl)-7,7-dimethyl-2-(2-(2-propenoyl)-2,6-diazaspiro[3.4]octan-6-yl)-7,8-dihydro-5H-pyrano[4,3-b]pyridine-3-carbonitrile]",> 5 µM,0.111 µM,–,–,0.093 µM
"C=CC(=O)N1CC2(CCN(c3nc4c(c(-c5cc(O)ccc5Cl)n3)CCC(c3scnc3C)C4)C2)C1 [Example 22-4, 1-(6-((7R)-4-(2-chloro-5-hydroxyphenyl)-7-(4-methyl-1,3-thiazol-5-yl)-5,6,7,8-tetrahydro-2-quinazolinyl)-2,6-diazaspiro[3.4]octan-2-yl)-2-propen-1-one| 1-(6-((7S)-4-(2-chloro-5-hydroxyphenyl)-7-(4-methyl-1,3-thiazol-5-yl)-5,6,7,8-tetrahydro-2-quinazolinyl)-2,6-diazaspiro[3.4]octan-2-yl)-2-propen-1-one]",> 5 µM,–,> 5 µM,0.222 µM,–
"C=CC(=O)N1CC2(CCN(c3nc4ccccc4c(-c4c(C)ccc5cn[nH]c45)c3C#N)C2)C1 [Example 2-2, 4-(6-methyl-1H-indazol-7-yl)-2-(2-(2-propenoyl)-2,6-diazaspiro[3.4]octan-6-yl)-3-quinolinecarbonitrile]",6.25 µM,0.694 µM,1.73 µM,–,–
"C=CC(=O)N1CC2(CCN(c3nc4c(c(-c5c(Cl)ccc6[nH]ncc56)c3C#N)COC(C)(C)C4)C2)C1 [Example 13-148, 4-(5-chloro-1H-indazol-4-yl)-7,7-dimethyl-2-(2-(2-propenoyl)-2,6-diazaspiro[3.4]octan-6-yl)-7,8-dihydro-5H-pyrano[4,3-b]pyridine-3-carbonitrile]",> 5 µM,0.026 µM,0.103 µM,–,–
"C=CC(=O)N1CC2(CCN(c3nc4cc(-c5scnc5CO)cnc4c(-c4ccccc4F)c3C#N)C2)C1 [Example 19-10, 4-(2-fluorophenyl)-7-(4-(hydroxymethyl)-1,3-thiazol-5-yl)-2-(2-(2-propenoyl)-2,6-diazaspiro[3.4]octan-6-yl)-1,5-naphthyridine-3-carbonitrile]",15.3 µM,–,1.13 µM,0.113 µM,–
"C#CC(=O)N1CC2(CCN(c3nc4c(F)cccc4c(-c4c(C)ccc5[nH]ncc45)c3C#N)C2)C1 [Example 1-14, 8-fluoro-4-(5-methyl-1H-indazol-4-yl)-2-(2-(2-propynoyl)-2,6-diazaspiro[3.4]octan-6-yl)-3-quinolinecarbonitrile]",1.09 µM,0.327 µM,0.069 µM,–,–
C=CC(=O)N1CC2(CCN(c3cn4ccnc4c(-c4c(C)ccc5[nH]ncc45)c3C#N)C2)C1 [Example 1-5],50 µM,0.52 µM,1.63 µM,–,–
"C=CC(=O)N1CC2(CCN(c3nc4c(c(-c5cc(O)ccc5Cl)c3C#N)CCN(C3CCCN(C)C3)C4)C2)C1 [Example 21-36, 4-(2-chloro-5-hydroxyphenyl)-7-((3R)-1-methyl-3-piperidinyl)-2-(2-(2-propenoyl)-2,6-diazaspiro[3.4]octan-6-yl)-5,6,7,8-tetrahydro-1,7-naphthyridine-3-carbonitrile 4-(2-chloro-5-hydroxyphenyl)-7-((3S)-1-methyl-3-piperidinyl)-2-(2-(2-propenoyl)-2,6-diazaspiro[3.4]octan-6-yl)-5,6,7,8-tetrahydro-1,7-naphthyridine-3-carbonitrile]",> 5 µM,–,0.174 µM,0.167 µM,–
"C=CC(=O)N1CC2(CCN(c3nc4cc(-c5cncn5C)cnc4c(-c4ccccc4F)c3C#N)C2)C1 [Example 19-7, 4-(2-fluorophenyl)-7-(1-methyl-1H-imidazol-5-yl)-2-(2-(2-propenoyl)-2,6-diazaspiro[3.4]octan-6-yl)-1,5-naphthyridine-3-carbonitrile]",14.1 µM,–,0.495 µM,0.789 µM,–
"C=CC(=O)N1CC2(CCN(c3nc4c(c(-c5cc(O)ccc5C)c3C#N)COC(C)(C)C4)C2)C1 (single isomer, unassigned) [Example 13-128, 4-(5-hydroxy-2-methylphenyl)-7,7-dimethyl-2-(2-(2-propenoyl)-2,6-diazaspiro[3.4]octan-6-yl)-7,8-dihydro-5H-pyrano[4,3-b]pyridine-3-carbonitrile]",> 5 µM,0.091 µM,> 5 µM,–,–
